Test results as given in US9969775B2, “CGRP antagonist peptides” (Ferring B.V., priority 2015, dated 2018).
Read-outs that look alike come from different tables or passages of the source. Numbered stars: 1 amine (or outer) side, 2 acyl side, 3 side chain; on linkers, the order of the positions; unused ones are H or OH. Bridge positions count the residues as written; N and C are the ends. Square brackets hold non-standard residues; d marks the D form. Peptide text beside a SMILES is read from it. * marks the point of attachment. Phe(3-CH2NH2) = O=C([C@H](Cc1cccc(CN[*:3])c1)N[*:1])[*:2]; Phe(2-CONH2) = NC(=O)c1ccccc1C[C@H](N)C(=O)O; Triazol3yl(1,2,4-5-NH2) = Nc1nc(*)n[nH]1; Picolinoyl(3,5-F2) = O=C(c1ncc(F)cc1F)*; Imidazole4carbonyl = O=C(c1cnc[nH]1)*; Lys(iPr) = CC(C)NCCCC[C@H](N)C(=O)O; Picolinoyl(5-F) = O=C(c1ccc(F)cn1)*; Lys(Me2) = CN(C)CCCC[C@H](N)C(=O)O; Orn(iPr) = CC(C)NCCC[C@H](N)C(=O)O; Oxazole2carbonyl = O=C(c1ncco1)*; 3Pal = N[C@@H](Cc1cccnc1)C(=O)O; ΔPro = O=C(O)[C@@H]1C=CCN1; Orn = NCCC[C@H](N)C(=O)O; Dab = NCC[C@H](N)C(=O)O; X12 = Cc1cccnc1C(=O)*; X9 = Nc1cccnc1C(=O)*; X10 = O=C(c1nccs1)*; X6 = O=C(c1ccncn1)*

Legend:
[1] = target: T1, hCGRP receptor (CALCRL:RAMP1) (Homo sapiens, UniProt O60894+Q16602); experiment: CGRP receptor antagonist activity measured by cAMP assay (HTRF); type: cell-based; conditions: for Emax: read-out: hCGRP-R Efficacy Antag (%) Ave; for IC50: GeneBLAzer CALCRL:RAMP1-CRE-bla Freestyle 293F cells, 30 minutes
T1 construct: host or cells: GeneBLAzer CALCRL:RAMP1-CRE-bla Freestyle 293F
T1 sequence (Q16602 23-461): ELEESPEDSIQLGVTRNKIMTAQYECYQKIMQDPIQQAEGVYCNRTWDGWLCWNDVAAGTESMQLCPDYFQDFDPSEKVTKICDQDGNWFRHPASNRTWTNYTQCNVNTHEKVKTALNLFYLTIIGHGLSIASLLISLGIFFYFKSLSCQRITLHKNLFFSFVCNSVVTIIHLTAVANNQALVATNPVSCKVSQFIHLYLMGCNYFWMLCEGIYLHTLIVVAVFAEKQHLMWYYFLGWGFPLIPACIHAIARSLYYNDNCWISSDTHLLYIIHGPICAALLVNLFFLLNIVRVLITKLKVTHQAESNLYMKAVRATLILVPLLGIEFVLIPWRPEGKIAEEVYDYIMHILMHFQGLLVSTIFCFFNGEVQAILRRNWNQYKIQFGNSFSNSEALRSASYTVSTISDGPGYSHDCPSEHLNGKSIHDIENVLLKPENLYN
T1 sequence (O60894 27-148): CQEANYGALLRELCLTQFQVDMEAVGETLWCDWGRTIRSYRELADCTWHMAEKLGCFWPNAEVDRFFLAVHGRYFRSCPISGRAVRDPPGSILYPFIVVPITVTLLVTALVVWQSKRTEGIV

[2] = target: T2, hAM2 receptor (CALCRL:RAMP3) (Homo sapiens, UniProt O60896+Q16602); experiment: AM2 receptor antagonist activity measured by cAMP assay (HTRF); type: cell-based; conditions: for Emax: read-out: hAM2-R Efficacy Antag (%) Ave; for IC50: GeneBLAzer CALCRL:RAMP3-CRE-bla Freestyle 293F cells; for selectivity ratio CGRP/AM2: selectivity ratio for hCGRP over hAM2, calculated from the IC50 values
T2 construct: expressed in transfected cells; host or cells: GeneBLAzer CALCRL:RAMP3-CRE-bla Freestyle 293F
T2 sequence (Q16602 23-461): as the sequence (Q16602 23-461) above
T2 sequence (O60896 24-148): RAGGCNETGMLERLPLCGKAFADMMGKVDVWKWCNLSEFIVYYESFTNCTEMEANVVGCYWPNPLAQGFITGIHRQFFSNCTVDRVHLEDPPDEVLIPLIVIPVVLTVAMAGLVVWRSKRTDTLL

[3] = % MPE: percent of the maximal possible effect, agonist human α-CGRP
[4] = agonist human α-CGRP, read-out: hCGRP-R IC50 Ave
[5] = % MPE: percent of the maximal possible effect, agonist human adrenomedullin
[6] = agonist human adrenomedullin, read-out: hAM2-R IC50 Ave

| Emax [1, 3] [%] | IC50 [1, 4] [nM] | Emax [2, 5] [%] | IC50 [2, 6] [nM] | selectivity ratio CGRP/AM2 [2] | Compound | IC50 ([1]; hCGRP-R IC50 Ave, agonist human α-CGRP) [nM] | Emax [1] [%] | IC50 ([2]; hAM2-R IC50 Ave, agonist human adrenomedullin) [nM] | Emax [2] [%] |
| --- | --- | --- | --- | --- | --- | --- | --- | --- | --- |
| 100 | 0.1 | 100 | 11 | 117 | CC(C)[C@@H]1NC(=O)[C@H](CC(=O)O)NC(=O)[C@H](CCCNC(=N)N)NC(=O)[C@@H](NC(=O)[C@H](Cc2ccc(O)cc2)NC(=O)[C@H](NC(=O)c2nccs2)C(C)C)CSSC[C@@H](C(=O)N[C@@H](Cc2cccnc2)C(N)=O)NC(=O)[C@H](Cc2ccccc2)NC(=O)[C@@H]2CCCN2C(=O)CNC1=O [Compound 33] (X10-[dV]YCRDVGPFC[3Pal]-NH2; disulfide 3-10) | – | – | – | – |
| 100 | 0.14 | 100 | 7.9 | 58 | Cc1cccnc1C(=O)N[C@@H](C(=O)N[C@@H](Cc1ccc(O)cc1)C(=O)N[C@H]1CSSC[C@@H](C(=O)N[C@@H](Cc2cccnc2)C(N)=O)NC(=O)[C@H](Cc2ccccc2)NC(=O)[C@@H]2CCCN2C(=O)CNC(=O)[C@H](C(C)C)NC(=O)[C@H](CC(=O)O)NC(=O)[C@H](CCCNC(=N)N)NC1=O)C(C)C [Compound 34] (X12-[dV]YCRDVGPFC[3Pal]-NH2; disulfide 3-10) | – | – | – | – |
| 100 | 0.06 | 101 | 33 | 580 | CC(C)[C@@H]1NC(=O)[C@H](CC(=O)O)NC(=O)[C@H](CCCNC(=N)N)NC(=O)[C@@H](NC(=O)[C@H](Cc2ccc(O)cc2)NC(=O)[C@H](NC(=O)c2ncc(F)cc2F)C(C)C)CSSC[C@@H](C(=O)N[C@@H](Cc2cccnc2)C(N)=O)NC(=O)[C@H](Cc2ccccc2)NC(=O)[C@@H]2CCCN2C(=O)CNC1=O [Compound 35] ({Picolinoyl(3,5-F2)}-[dV]YCRDVGPFC[3Pal]-NH2; disulfide 3-10) | – | – | – | – |
| 100 | 0.17 | 101 | 16 | 93 | CC(C)[C@@H]1NC(=O)[C@H](CC(=O)O)NC(=O)[C@H](CCCNC(=N)N)NC(=O)[C@@H](NC(=O)[C@H](Cc2ccc(O)cc2)NC(=O)[C@H](NC(=O)c2ncccc2N)C(C)C)CSSC[C@@H](C(=O)N[C@@H](Cc2cccnc2)C(N)=O)NC(=O)[C@H](Cc2ccccc2)NC(=O)[C@@H]2CCCN2C(=O)CNC1=O [Compound 36] (X9-[dV]YCRDVGPFC[3Pal]-NH2; disulfide 3-10) | – | – | – | – |
| 100 | 0.17 | 100 | 379 | 2295 | CC(C)[C@@H]1NC(=O)[C@H](CC(=O)O)NC(=O)[C@H](CCCNC(=N)N)NC(=O)[C@@H](NC(=O)[C@H](Cc2ccc(O)cc2)NC(=O)[C@H](NC(=O)c2cnc[nH]2)C(C)C)CSSC[C@@H](C(=O)N[C@@H](Cc2cccnc2)C(N)=O)NC(=O)[C@H](Cc2ccccc2)NC(=O)[C@@H]2CCCN2C(=O)CNC1=O [Compound 37] (Imidazole4carbonyl-[dV]YCRDVGPFC[3Pal]-NH2; disulfide 3-10) | – | – | – | – |
| 100 | 0.06 | 101 | 87 | 1478 | CC(C)NCCC[C@@H]1NC(=O)[C@@H](NC(=O)[C@H](Cc2ccccc2C(N)=O)NC(=O)[C@H](NC(=O)c2ccc(F)cn2)C(C)C)CSSC[C@@H](C(=O)N[C@@H](Cc2cccnc2)C(N)=O)NC(=O)[C@H](Cc2cccnc2)NC(=O)[C@@H]2C=CCN2C(=O)CNC(=O)[C@H](C(C)C)NC(=O)[C@H](CC(=O)O)NC1=O [Compound 38, Picolinoyl(5-F)-D-Val-Phe(2-Cbm)-c(Cys-Orn(iPr)-Asp-Val-Gly-Dhp-3Pal-Cys)-3Pal-NH2] ({Picolinoyl(5-F)}-[dV][Phe(2-CONH2)]C[Orn(iPr)]DVG[ΔPro][3Pal]C[3Pal]-NH2; disulfide 3-10) | – | – | – | – |
| 100 | 0.13 | 101 | 275 | 2125 | CC(C)NCCC[C@@H]1NC(=O)[C@@H](NC(=O)[C@H](Cc2ccccc2C(N)=O)NC(=O)[C@H](NC(=O)c2ccc(F)cn2)C(C)C)CSSC[C@@H](C(=O)N[C@@H](Cc2cccnc2)C(N)=O)NC(=O)[C@H](Cc2cccnc2)NC(=O)[C@@H]2CCCN2C(=O)CNC(=O)[C@H](C(C)C)NC(=O)[C@H](CC(=O)O)NC1=O [Compound 39, Picolinoyl(5-F)-D-Val-Phe(2-Cbm)-c(Cys-Orn(iPr)-Asp-Val-Gly-Pro-3Pal-Cys)-3Pal-NH2] ({Picolinoyl(5-F)}-[dV][Phe(2-CONH2)]C[Orn(iPr)]DVGP[3Pal]C[3Pal]-NH2; disulfide 3-10) | – | – | – | – |
| 100 | 0.13 | 97 | 1020 | 8075 | CC(C)NCCCC[C@@H]1NC(=O)[C@@H](NC(=O)[C@H](Cc2ccccc2C(N)=O)NC(=O)[C@H](NC(=O)c2ncco2)C(C)C)CSSC[C@@H](C(=O)N[C@@H](Cc2cccnc2)C(N)=O)NC(=O)[C@H](Cc2cccnc2)NC(=O)[C@@H]2CCCN2C(=O)CNC(=O)[C@H](C(C)C)NC(=O)[C@H](CC(=O)O)NC1=O [Compound 41, Oxazole-2-carbonyl-D-Val-Phe(2-Cbm)-c(Cys-Lys(iPr)-Asp-Val-Gly-Pro-3Pal-Cys)-3Pal-NH2] (Oxazole2carbonyl-[dV][Phe(2-CONH2)]C[Lys(iPr)]DVGP[3Pal]C[3Pal]-NH2; disulfide 3-10) | – | – | – | – |
| 100 | – | 97 | – | – | CC(C)[C@@H]1NC(=O)[C@H](CC(=O)O)NC(=O)[C@H](CCNc2nc(N)n[nH]2)NC(=O)[C@@H](NC(=O)[C@H](Cc2ccccc2C(N)=O)NC(=O)[C@H](NC(=O)c2ncco2)C(C)C)CSSC[C@@H](C(=O)N[C@@H](Cc2cccnc2)C(N)=O)NC(=O)[C@H](Cc2cccnc2)NC(=O)[C@@H]2CCCN2C(=O)CNC1=O [Compound 42, Oxazole-2-carbonyl-D-Val-Phe(2-Cbm)-c(Cys-Dab(Atz)-Asp-Val-Gly-Pro-3Pal-Cys)-3Pal-NH2] (Oxazole2carbonyl-[dV][Phe(2-CONH2)]C[Dab](Triazol3yl(1,2,4-5-NH2))DVGP[3Pal]C[3Pal]-NH2; disulfide 3-10) | – | – | – | – |
| 100 | 0.04 | 101 | 180 | 4693 | CC(C)NCCC[C@@H]1NC(=O)[C@@H](NC(=O)[C@H](Cc2ccccc2C(N)=O)NC(=O)[C@H](NC(=O)c2ncco2)C(C)C)CSSC[C@@H](C(=O)N[C@@H](Cc2cccnc2)C(N)=O)NC(=O)[C@H](Cc2cccc(CN)c2)NC(=O)[C@@H]2C=CCN2C(=O)CNC(=O)[C@H](C(C)C)NC(=O)[C@H](CC(=O)O)NC1=O [Compound 43, Oxazole-2-carbonyl-D-Val-Phe(2-Cbm)-c(Cys-Orn(iPr)-Asp-Val-Gly-Dhp-Phe(3-CH2NH2)-Cys)-3Pal-NH2] (Oxazole2carbonyl-[dV][Phe(2-CONH2)]C[Orn(iPr)]DVG[ΔPro][Phe(3-CH2NH2)]C[3Pal]-NH2; disulfide 3-10) | – | – | – | – |
| 100 | 0.17 | 100 | 114 | 668 | CC(C)[C@@H]1NC(=O)[C@H](CC(=O)O)NC(=O)[C@H](CCCNC(=O)[C@@H](N)CCCCN(C)C)NC(=O)[C@@H](NC(=O)[C@H](Cc2ccc(O)cc2)NC(=O)[C@H](NC(=O)c2ncco2)C(C)C)CSSC[C@@H](C(=O)N[C@@H](Cc2cccnc2)C(N)=O)NC(=O)[C@H](Cc2ccccc2)NC(=O)[C@@H]2CCCN2C(=O)CNC1=O [Compound 44, Oxazole-2-carbonyl-D-Val-Tyr-c(Cys-Orn(Lys(Me2))-Asp-Val-Gly-Pro-Phe-Cys)-3Pal-NH2] (Oxazole2carbonyl-[dV]YC[Orn](Lys(Me2))DVGPFC[3Pal]-NH2; disulfide 3-10) | – | – | – | – |
| 100 | 0.18 | 98 | 198 | 1082 | CC(C)[C@@H]1NC(=O)[C@H](CC(=O)O)NC(=O)[C@H](CCCNC(=O)[C@@H](N)CCCCN(C)C)NC(=O)[C@@H](NC(=O)[C@H](Cc2ccc(O)cc2)NC(=O)[C@H](NC(=O)c2ccncn2)C(C)C)CSSC[C@@H](C(=O)N[C@@H](Cc2cccnc2)C(N)=O)NC(=O)[C@H](Cc2ccccc2)NC(=O)[C@@H]2CCCN2C(=O)CNC1=O [Compound 45, Pyrimidine-4-carbonyl-D-Val-Tyr-c(Cys-Orn(Lys(Me2))-Asp-Val-Gly-Pro-Phe-Cys)-3Pal-NH2] (X6-[dV]YC[Orn](Lys(Me2))DVGPFC[3Pal]-NH2; disulfide 3-10) | – | – | – | – |

| Compound | Emax [1, 3] [%] | IC50 [1, 4] [nM] | Emax [2, 5] [%] | IC50 [2, 6] [nM] | selectivity ratio CGRP/AM2 [2] | IC50 ([1]; hCGRP-R IC50 Ave, agonist human α-CGRP) [nM] | Emax [1] [%] | IC50 ([2]; hAM2-R IC50 Ave, agonist human adrenomedullin) [nM] | Emax [2] [%] |
| --- | --- | --- | --- | --- | --- | --- | --- | --- | --- |
| CC(C)NCCC[C@@H]1NC(=O)[C@@H](NC(=O)[C@H](Cc2ccccc2C(N)=O)NC(=O)[C@H](NC(=O)c2ncco2)C(C)C)CSSC[C@@H](C(=O)N[C@@H](Cc2cccnc2)C(N)=O)NC(=O)[C@H](Cc2cccnc2)NC(=O)[C@@H]2CCCN2C(=O)CNC(=O)[C@H](C(C)C)NC(=O)[C@H](CC(=O)O)NC1=O [Compound 40, Oxazole-2-carbonyl-D-Val-Phe(2-Cbm)-c(Cys-Orn(iPr)-Asp-Val-Gly-Pro-3Pal-Cys)-3Pal-NH2] (Oxazole2carbonyl-[dV][Phe(2-CONH2)]C[Orn(iPr)]DVGP[3Pal]C[3Pal]-NH2; disulfide 3-10) | – | – | – | – | 10884 | 0.09 | 100 | 980 | 98 |
